According to patent US20250145598A1, “ACID CERAMIDASE INHIBITORS AND USES THEREOF” (The Regents of the University of California, priority 2021, published 2025):

Target: T1, Acid ceramidase (Homo sapiens, UniProt Q13510)
T1 sequence (Q13510 22-395): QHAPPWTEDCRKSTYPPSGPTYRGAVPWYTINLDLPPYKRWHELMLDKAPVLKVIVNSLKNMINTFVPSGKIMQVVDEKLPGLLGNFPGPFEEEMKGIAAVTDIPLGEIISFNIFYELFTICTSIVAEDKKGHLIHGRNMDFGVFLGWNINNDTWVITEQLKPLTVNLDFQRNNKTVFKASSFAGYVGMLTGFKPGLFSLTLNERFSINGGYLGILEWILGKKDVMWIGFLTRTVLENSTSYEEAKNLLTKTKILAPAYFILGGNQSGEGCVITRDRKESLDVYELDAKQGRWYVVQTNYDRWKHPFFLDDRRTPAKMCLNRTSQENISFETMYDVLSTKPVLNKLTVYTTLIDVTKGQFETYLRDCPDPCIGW
Assay: Acid ceramidase assay (AC in vitro IC50)
Type: biochemical
Details: Acid ceramidase assay data of example compounds

Compound | IC50 [nM]
CS(=O)(=O)c1ccc(COc2ccc(-c3cn(C(=O)NCC4CN(c5cccc(Cl)c5)C4)cn3)cc2)cc1 [AC2020601-0407, N-((1-(3-chlorophenyl)azetidin-3-yl)methyl)-4-(4-((4-(methylsulfonyl)benzyl)oxy)phenyl)-1H-imidazole-1-carboxamide] | < 300
CS(=O)(=O)c1ccc(COc2ccc(-c3cn(C(=O)NC[C@@H]4CCN(c5ccccc5)C4)cn3)cc2)cc1 (single isomer, unassigned) [AC2020601-0384a] | < 300
CS(=O)(=O)Nc1ccc(COc2ccc(-c3cn(C(=O)NCCCCc4ccccc4)cn3)cc2)cc1 [AC2020601-0306, 4-(4-((4-(methylsulfonamido)benzyl)oxy)phenyl)-N-(4-phenylbutyl)-1H-imidazole-1-carboxamide] | < 300
NC(=O)c1cccc(COc2ccc(-c3cn(C(=O)NCCCCc4ccccc4)cn3)cc2)c1 [AC2020601-0246, 4-(4-((3-carbamoylbenzyl)oxy)phenyl)-N-(4-phenylbutyl)-1H-imidazole-1-carboxamide] | < 300
O=C(NCCCOc1ccccc1)n1cnc(-c2ccc(OCc3ccc(NS(=O)(=O)C(F)F)cc3)cc2)c1 [AC2020601-0363, 4-(4-((4-(difluoromethylsulfonamido)benzyl)oxy)phenyl)-N-(3-phenoxypropyl)-1H-imidazole-1-carboxamide] | < 300
O=C(NCC1CCN(c2ccccc2)C1)n1cnc(-c2ccc(OC3CCc4cc(F)ccc43)cc2)c1 (stereo not shown) [AC2020601-0439, 4-(4-((5-fluoro-2,3-dihydro-1H-inden-1-yl)oxy)phenyl)-N-((1-phenylpyrrolidin-3-yl)methyl)-1H-imidazole-1-carboxamide] | < 300

Now from value to molecule:

IC50 [nM] | Compound
< 300 | Cn1nc(C(F)(F)F)cc1COc1ccc(-c2cn(C(=O)NCC3CCN(c4ccccc4)C3)cn2)cc1 (stereo not shown) [AC2020601-0481, 4-(4-((1-methyl-3-(trifluoromethyl)-1H-pyrazol-5-yl)methoxy)phenyl)-N-((1-phenylpyrrolidin-3-yl)methyl)-1H-imidazole-1-carboxamide]
< 300 | CS(=O)(=O)c1ccc(COc2ccc(-c3cn(C(=O)NCC4CCN(c5cccc(C#N)c5)C4)cn3)cc2)cc1 (stereo not shown) [AC2020601-0494, N-((1-(3-cyanophenyl)pyrrolidin-3-yl)methyl)-4-(4-(4-(methylsulfonyl)benzyloxy)phenyl)-1H-imidazole-1-carboxamide]
< 300 | Cc1ncc(N2CCC(CNC(=O)n3cnc(-c4ccc(OCc5ccc(S(C)(=O)=O)cc5)cc4)c3)C2)s1 (stereo not shown) [AC2020601-0499, 4-(4-((4-(methylsulfonyl)benzyl)oxy)phenyl)-N-((1-(2-methylthiazol-5-yl)pyrrolidin-3-yl)methyl)-1H-imidazole-1-carboxamide]
< 300 | N#Cc1cccnc1COc1ccc(-c2cn(C(=O)NCC3CCN(c4ccccc4)C3)cn2)cc1 (stereo not shown) [AC2020601-0451, 4-(4-((3-cyanopyridin-2-yl)methoxy)phenyl)-N-((1-phenylpyrrolidin-3-yl)methyl)-1H-imidazole-1-carboxamide]
< 300 | O=C(NCC1CCN(c2ccccc2)C1)n1cnc(-c2ccc(OCc3cccnn3)cc2)c1 (stereo not shown) [AC2020601-0472, N-((1-phenylpyrrolidin-3-yl)methyl)-4-(4-(pyridazin-3-ylmethoxy)phenyl)-1H-imidazole-1-carboxamide]
< 300 | CS(=O)(=O)c1ncc(COc2ccc(-c3cn(C(=O)NCC4CCN(c5ccccc5)C4)cn3)cc2)cn1 (stereo not shown) [AC2020601-0477, 4-(4-((2-(methylsulfonyl)pyrimidin-5-yl)methoxy)phenyl)-N-((1-phenylpyrrolidin-3-yl)methyl)-1H-imidazole-1-carboxamide]
< 300 | CS(=O)(=O)c1ccc(COc2ccc(-c3cn(C(=O)NCC4CCN(c5ccccc5)C4)cn3)cc2)cn1 (stereo not shown) [AC2020601-0444, 4-(4-((6-(methylsulfonyl)pyridin-3-yl)methoxy)phenyl)-N-((1-phenylpyrrolidin-3-yl)methyl)-1H-imidazole-1-carboxamide]
